Laboratory results from ChEMBL document CHEMBL1139415, “Highly functionalized 7-azaindoles as selective PPAR gamma modulators” (Bioorg Med Chem Lett, 2008).
pEC50, pIC50: −log10 of the molar value. Activity calls are given as the source filed them. No cut-off for these calls is given here.

Experiments:
[1] = biological target: T1, Peroxisome proliferator-activated receptor gamma (Homo sapiens, UniProt P37231); assay: Displacement of [3H]2AD-5075 from GST-tagged human PPARgamma receptor expressed in Escherichia coli BL21
T1 sequence (P37231 whole entry): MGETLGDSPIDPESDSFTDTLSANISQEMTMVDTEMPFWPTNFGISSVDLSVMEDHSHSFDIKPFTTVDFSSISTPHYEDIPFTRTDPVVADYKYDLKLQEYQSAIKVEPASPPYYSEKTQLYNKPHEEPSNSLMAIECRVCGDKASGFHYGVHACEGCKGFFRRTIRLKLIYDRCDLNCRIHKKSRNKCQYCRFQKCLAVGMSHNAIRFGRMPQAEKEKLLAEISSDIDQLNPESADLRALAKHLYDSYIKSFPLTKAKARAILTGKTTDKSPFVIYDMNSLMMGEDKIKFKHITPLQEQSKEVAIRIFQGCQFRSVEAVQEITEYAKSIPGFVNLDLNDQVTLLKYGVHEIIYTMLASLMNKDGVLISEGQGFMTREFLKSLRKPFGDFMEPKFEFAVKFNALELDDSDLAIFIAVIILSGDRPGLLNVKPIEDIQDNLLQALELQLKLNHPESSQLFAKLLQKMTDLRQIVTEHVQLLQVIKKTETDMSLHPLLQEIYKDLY

[2] = biological target: T1, Peroxisome proliferator-activated receptor gamma; assay: Agonist activity at human PPARgamma receptor expressed in african green monkey COS cells after 48 hrs by GAL4 transactivation assay; type: functional, cell-based
[3] = biological target: T2, Peroxisome proliferator-activated receptor alpha (Homo sapiens, UniProt Q07869); assay: (§1) Binding affinity to human PPARalpha
T2 sequence (Q07869 whole entry): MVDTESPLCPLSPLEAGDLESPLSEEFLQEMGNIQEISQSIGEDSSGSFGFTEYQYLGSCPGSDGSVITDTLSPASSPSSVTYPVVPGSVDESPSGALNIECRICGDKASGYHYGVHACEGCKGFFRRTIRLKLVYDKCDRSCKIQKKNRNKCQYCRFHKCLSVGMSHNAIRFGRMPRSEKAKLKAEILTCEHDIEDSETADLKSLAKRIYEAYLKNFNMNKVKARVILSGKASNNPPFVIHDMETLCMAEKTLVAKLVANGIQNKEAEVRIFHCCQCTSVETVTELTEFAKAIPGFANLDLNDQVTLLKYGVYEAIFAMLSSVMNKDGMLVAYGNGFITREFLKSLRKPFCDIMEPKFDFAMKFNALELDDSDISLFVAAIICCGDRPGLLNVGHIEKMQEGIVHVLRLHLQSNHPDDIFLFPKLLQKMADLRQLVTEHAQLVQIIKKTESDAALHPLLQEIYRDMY

[4] = biological target: T3, Peroxisome proliferator-activated receptor delta (Homo sapiens, UniProt Q03181); assay: Binding affinity to PPARdelta
T3 sequence (Q03181 whole entry): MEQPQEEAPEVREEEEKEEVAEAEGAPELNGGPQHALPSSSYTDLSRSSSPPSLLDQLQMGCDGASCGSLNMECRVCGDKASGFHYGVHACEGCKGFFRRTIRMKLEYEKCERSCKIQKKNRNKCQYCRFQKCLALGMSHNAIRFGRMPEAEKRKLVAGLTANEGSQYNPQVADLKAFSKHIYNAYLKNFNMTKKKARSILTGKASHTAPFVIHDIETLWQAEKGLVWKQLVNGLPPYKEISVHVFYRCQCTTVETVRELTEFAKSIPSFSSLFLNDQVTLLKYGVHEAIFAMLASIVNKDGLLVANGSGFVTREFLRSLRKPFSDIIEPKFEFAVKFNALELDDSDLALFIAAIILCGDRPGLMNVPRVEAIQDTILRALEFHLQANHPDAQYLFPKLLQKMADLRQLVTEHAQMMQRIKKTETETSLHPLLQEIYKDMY

[5] = Clearance in Sprague-Dawley rat at 0.5 mg, iv and 2.0 mg, po; type: ADME, organism-based; conditions: in vivo
[6] = Half life in Sprague-Dawley rat at 0.5 mg, iv and 2.0 mg, po; type: ADME, organism-based; conditions: in vivo
[7] = Bioavailability in Sprague-Dawley rat at 0.5 mg, iv and 2.0 mg, po; type: ADME, organism-based; conditions: in vivo
[8] = biological target: T4, Peroxisome proliferator-activated receptor alpha (Mus musculus) (UniProt P23204); assay: Binding affinity to mouse PPARalpha
T4 sequence (whole entry): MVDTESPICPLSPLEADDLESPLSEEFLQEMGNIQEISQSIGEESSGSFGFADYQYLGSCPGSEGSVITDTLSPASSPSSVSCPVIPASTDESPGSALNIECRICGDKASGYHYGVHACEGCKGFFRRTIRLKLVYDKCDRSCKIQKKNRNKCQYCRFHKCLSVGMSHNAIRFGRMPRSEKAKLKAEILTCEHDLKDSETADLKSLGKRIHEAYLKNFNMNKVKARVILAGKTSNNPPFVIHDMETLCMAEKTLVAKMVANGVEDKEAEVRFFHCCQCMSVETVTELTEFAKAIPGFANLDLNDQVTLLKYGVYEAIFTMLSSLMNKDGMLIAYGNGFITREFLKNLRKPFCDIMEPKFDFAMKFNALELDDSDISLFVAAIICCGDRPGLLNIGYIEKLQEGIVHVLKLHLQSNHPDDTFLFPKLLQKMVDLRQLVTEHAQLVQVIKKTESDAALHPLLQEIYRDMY

[9] = system: Mus musculus; assay: Antiglycemic activity in db/db mouse assessed as glucose correction at 10 mg/kg, po administered daily for 11 days; type: functional
[10] = system: Mus musculus; assay: Antiglycemic activity in db/db mouse assessed as glucose correction at 20 mg/kg, po administered daily for 11 days; type: functional
[11] = system: Mus musculus; assay: Antiglycemic activity in db/db mouse assessed as glucose correction at 50 mg/kg, po administered daily for 11 days; type: functional
[12] = biological target: Peroxisome proliferator-activated receptor alpha (Homo sapiens) (UniProt Q07869); assay: as §1
[13] = biological target: Cytochrome P450 2C9 (Homo sapiens, UniProt P11712); assay: Inhibition of CYP2C9; type: ADME
[14] = system: Mus musculus; assay: Antiglycemic activity in db/db mouse assessed as glucose correction at 30 mg/kg, po administered daily for 11 days; type: functional
[15] = biological target: Thromboxane A2 receptor (Homo sapiens) (UniProt P21731); assay: Inhibition of TXA2 receptor at 10 uM
Chain of Thromboxane A2 receptor (Homo sapiens) (P21731 whole entry): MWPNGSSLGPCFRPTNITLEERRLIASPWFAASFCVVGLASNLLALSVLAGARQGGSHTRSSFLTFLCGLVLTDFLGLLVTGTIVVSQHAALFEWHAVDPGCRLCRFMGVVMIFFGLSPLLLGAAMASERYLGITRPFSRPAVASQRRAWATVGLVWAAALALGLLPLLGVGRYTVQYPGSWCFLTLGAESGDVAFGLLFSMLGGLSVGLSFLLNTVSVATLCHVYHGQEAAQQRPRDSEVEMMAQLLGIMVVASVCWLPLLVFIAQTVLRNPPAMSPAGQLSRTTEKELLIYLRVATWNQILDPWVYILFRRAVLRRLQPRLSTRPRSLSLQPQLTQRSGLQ

Chain of Cytochrome P450 2C9 (P11712 whole entry): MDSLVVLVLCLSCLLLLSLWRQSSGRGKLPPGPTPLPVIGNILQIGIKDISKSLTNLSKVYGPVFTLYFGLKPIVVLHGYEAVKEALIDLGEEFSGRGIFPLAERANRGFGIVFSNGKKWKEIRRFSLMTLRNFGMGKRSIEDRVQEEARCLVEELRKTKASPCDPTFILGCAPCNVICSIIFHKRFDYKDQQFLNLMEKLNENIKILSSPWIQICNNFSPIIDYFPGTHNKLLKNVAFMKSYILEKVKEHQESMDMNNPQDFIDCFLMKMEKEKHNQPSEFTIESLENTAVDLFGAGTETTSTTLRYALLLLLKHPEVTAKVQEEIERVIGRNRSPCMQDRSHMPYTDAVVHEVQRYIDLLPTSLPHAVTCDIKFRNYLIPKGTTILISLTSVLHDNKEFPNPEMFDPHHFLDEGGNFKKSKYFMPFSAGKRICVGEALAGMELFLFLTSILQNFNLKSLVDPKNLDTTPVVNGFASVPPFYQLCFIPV

Row | SMILES | pIC50 [1] | pEC50 [2] | pIC50 [3] | pIC50 [4] | clearance [5] [mL/min/kg] | half-life [6] [min] | bioavailability [7] [%] | %max [8] [%] | Activity [8] | Activity [9] [%] | Activity [10] [%] | Activity [11] [%] | Activity [12] | pIC50 [13] | Activity [14] [%] | inhibition [15] [%]
1 | COc1ccc(C(=O)c2c(C)n(Cc3ccc(Cl)c(O[C@@H](C)C(=O)O)c3)c3nc(OC)ccc23)cc1 | > 9.00 | 9.00 | < 4.30 | < 4.30 |  |  |  |  |  |  |  |  |  |  |  | 
2 | COc1ccc(C(=O)c2c(C)n(Cc3ccc(F)c(O[C@@H](C)C(=O)O)c3)c3ncccc23)cc1 | 8.00 | 8.52 | < 4.30 | < 4.30 |  |  |  |  |  |  |  |  |  |  |  | 
3 | COc1ccc(C(=O)c2c(C)n(Cc3cc(O[C@@H](C)C(=O)O)ccc3F)c3nc(C)ccc23)cc1 | 8.40 | 8.70 |  |  | 32 | 114 | 105 | 28 | 500 nM | 63 |  |  |  |  |  | 
4 | Cc1c(Oc2ccc(Cl)cc2)c2ccc(C(F)(F)F)nc2n1Cc1ccc(Cl)c(O[C@@H](C)C(=O)O)c1 | 7.66 | 7.64 | < 4.30 | < 4.30 | 12.4 | 114 | 61 |  |  |  | 18 | 56 |  |  |  | 
5 | COc1ccc(C(=O)c2c(C)n(Cc3ccc(F)c(O[C@@H](C)C(=O)O)c3)c3nc(OC)ccc23)cc1 | 9.00 | 9.00 |  |  |  |  |  |  | 222 nM | 23 |  |  | 489 nM |  |  | 
6 | COc1ccc(C(=O)c2c(C)n(Cc3cccc(O[C@H](C)C(=O)O)c3)c3ncccc23)cc1 | 6.14 | 5.53 |  | < 4.30 |  |  |  |  | Active |  |  |  | Active |  |  | 
7 | COc1ccc(C(=O)c2c(C)n(Cc3cccc(O[C@@H](C)C(=O)O)c3)c3nc(C)ccc23)cc1 | 7.80 | 8.05 | < 4.30 | < 4.30 | 28 | 144 | 80 |  |  | 42 |  |  |  |  |  | 
8 | Cc1c(C(=O)c2ccc(Cl)cc2)c2ccc(OC(F)(F)F)cc2n1Cc1cccc(O[C@@H](C)C(=O)O)c1 | 9.00 | 9.00 |  |  | 21.7 | 90 | 45 |  |  |  |  |  |  | 5.25 |  | 
9 | COc1ccc(C(=O)c2c(C)n(Cc3cc(O[C@@H](C)C(=O)O)ccc3Cl)c3nc(OC)ccc23)cc1 | 8.70 | 8.70 | < 4.30 | < 4.30 |  |  |  |  |  |  |  |  |  |  | 32 | 
10 | Cc1c(Oc2ccc(Cl)cc2)c2ccc(Cl)nc2n1Cc1ccc(Cl)c(O[C@@H](C)C(=O)O)c1 | 8.52 | 8.40 | < 4.30 | < 4.30 | 27 | 72 | 56 |  |  | 32 |  |  |  |  | 44 | 
11 | Cc1c(Oc2ccc(Cl)cc2)c2cccnc2n1Cc1cc(O[C@@H](C)C(=O)O)ccc1F | 7.27 | 6.81 | < 4.30 | < 4.30 | 22.1 | 96 | 77 |  |  |  |  |  |  |  |  | 
12 | COc1ccc(C(=O)c2c(C)n(Cc3cc(O[C@@H](C)C(=O)O)ccc3F)c3ncccc23)cc1 | 8.30 | 8.52 | < 4.30 | < 4.30 | 31.7 | 108 | 51 |  |  |  | 44 |  |  |  |  | 64
13 | Cc1c(Oc2ccc(Cl)cc2)c2cccnc2n1Cc1cc(O[C@@H](C)C(=O)O)ccc1Cl | 7.60 | 7.44 | < 4.30 | < 4.30 | 21.8 | 72 | 61 |  |  |  |  |  |  |  |  | 
14 | COc1ccc(C(=O)c2c(C)n(Cc3cc(O[C@@H](C)C(=O)O)ccc3F)c3nc(OC)ccc23)cc1 | 8.70 | 9.00 | < 4.30 | < 4.30 | 7.4 | 84 | 37 |  |  | 33 |  | 34 |  |  | 35 | 
15 | CN(CCOc1ccc(CC2SC(=O)NC2=O)cc1)c1ccccn1 (configuration not stated) [ROSIGLITAZONE] |  |  |  |  |  |  |  |  |  | 90 |  |  |  |  |  | 
16 | Cc1c(Oc2ccc(Cl)cc2)c2ccc(F)nc2n1Cc1ccc(F)c(O[C@@H](C)C(=O)O)c1 | 7.64 | 7.03 | < 4.30 | < 4.30 |  |  |  |  |  |  |  |  |  |  |  | 
17 | Cc1c(Oc2ccc(Cl)cc2)c2cccnc2n1Cc1ccc(F)c(O[C@@H](C)C(=O)O)c1 | 6.97 | 6.85 | < 4.30 | < 4.30 |  |  |  |  |  |  |  |  |  |  |  | 
18 | Cc1c(Oc2ccc(Cl)cc2)c2ccc(F)nc2n1Cc1ccc(Cl)c(O[C@@H](C)C(=O)O)c1 | 8.52 | 8.40 | < 4.30 | < 4.30 | 23 | 48 | 47 |  |  |  |  |  |  |  | 30 | 
19 | Cc1c(Oc2ccc(Cl)cc2)c2ccc(F)nc2n1Cc1cc(O[C@@H](C)C(=O)O)ccc1Cl | 7.82 | 8.40 | < 4.30 | < 4.30 |  |  |  |  |  |  |  |  |  |  |  | 
